The results in this text go back to patent publication US9820963B2, “Composition containing lignan compound as active ingredient for preventing or treating cancer” (KOREA RESEARCH INSTITUTE OF BIOSCIENCE AND BIOTECHNOLOGY, priority 2013, dated 2017).

In series [1] the test system is ERKs/RSKs signaling pathway. The series can be described thus: Western blot of EGF-stimulated cells, ERKs/RSKs signaling pathway. Format: cell-based, mouse. Conditions: for ERK1/2 phosphorylation at Thr202/Tyr204: JB6 Cl41 cells. On the procedure:
The cultured JB6 Cl41 cells (1×10^6 cells) were aliquoted into a cell culture dish with a diameter of 100 mm and they were cultured overnight. Then, the cells were left for 24 hours in 0.1% FBS-MEM and pretreated with magnolin at concentrations of 15 μM, 30 μM, and 60 μM for 30 minutes, respectively, and after 30 minutes, co-treated with EGF and magnolin.
The proteins were extracted from the cultured JB6 Cl41 cells and the samples containing the proteins were analyzed by 8% to 10% SDS-PAGE, and transferred onto polyvinylidene difluoride (PVDF) membranes. The membranes were cultured in a blocking buffer containing 5% skim milk. Then, Western blot was performed using specific antibodies for phospho-MEK (MAPK (mitogen-activated protein kinase)/ERK kinase), total-MEK, phospho-ERK, total-ERK, phospho-RSK, total-RSK, phospho-Akt, total-Akt, phospho-p38 kinase, total-p38 kinase, phospho-JNK (c-Jun N-terminal kinase), and total-JNK (all the antibodies obtained from Cell Signaling Technology, Beverly, Mass., USA). In particular, β-actin (Santa Cruz, Calif., USA) was used as a control and the Western blot was visualized with an enhanced chemiluminescence detection system (Amersham Biosciences, Piscataway, N.J., USA) using the Chemidoc XRS imager system (Bio-Rad Laboratories, Hercules, Calif., USA).
To confirm whether the action of magnolin, which interrupts phosphorylation at Thr359/Ser363 of RSKs, was selective in MEKs/ERKs signaling pathways or not, the action was compared by conducting an experiment on the phosphorylation of ERKs and RSKs by treatment with PD98059, an MEK1/2 inhibitor. As a result, it was confirmed that PD98059 interrupts ERK1/2 phosphorylation at Thr202/Tyr204.

The subject of series [2] is NIH3T3 cells expressing Ras^G12V. The series can be described thus: Cell proliferation and anchorage-independent colony growth of NIH3T3 cells. Format: cell-based. The text has this: In order to confirm the experimental results more precisely, NIH3T3 cells stably expressing mock or Ras^G12V were used to perform an additional experiment in the same manner as described above.

Series [3] concerns JB6 Cl41 cells. The series can be described thus: Cytotoxicity of magnolin. Format: cell-based, mouse. Conditions: 100 μM or higher, 48 hours. On the procedure:
Additionally, to examine the cytotoxicity of magnolin, the cultured cells (2×10^4 cells) were aliquoted into 96-well plates containing 5% FBS-MEM and cultured overnight. Then, the cells were treated with the magnolin samples to final concentrations of 15 μM, 30 μM, 60 μM, and 100 μM respectively, prepared in the Example 5. The cells were cultured for 48 hours while measuring the absorbance at 24 hour intervals. In the experiment, the cell treated with DMSO alone was set as a control.

Series [4] has as its system Mouse skin epidermal JB6 Cl41 cells. The series can be described thus: MTS assay, inhibitory effect of magnolin on cell proliferation. Format: cell-based. Conditions: up to 96 hours, read-out: inhibition of cell proliferation compared with DMSO control. The procedure:
Mouse skin epidermal JB6 Cl41 cells were cultured in Dulbeco's Modified Eagle's Medium (DMEM) containing 10% FBS at 37° C. in a 5% CO2 bioreactor. The cells were subcultured at 80% to 90% confluence and the medium was changed every 2 to 3 days.
The cultured JB6 Cl41 cells (1×10^3 cells) were aliquoted into 96-well plates containing 5% FBS-MEM and cultured for 2 hours at 37° C. in a 5% CO2 bioreactor. Then, each well was added with 20 μL of an aqueous solution of the MTS-based Cell Titer 96, and then, further cultured for 1 hour at 37° C. in a 5% CO2 bioreactor. 25 μL of 10% sodium dodeceyl sulfate (SDS) solution was added into each of the wells to stop the reaction. The absorbance at 492 nm was measured to measure the growth of the cells at 0 hour.
While measuring the absorbance at 0 hour, the cells were simultaneously treated with the magnolin samples to final concentrations of 15 μM, 30 μM, and 60 μM, respectively, prepared in Example 5. The cells were cultured for 96 hours while measuring the absorbance at 24 hour intervals. In the experiment, the cell treated with DMSO alone was set as a control.
Background: Tetrazolium dyes change colour on reduction, which living cells bring about.

Series [5] has as its target T1, ERK2 (Homo sapiens, UniProt P28482). The series can be described thus: In vitro kinase analysis with active ERK2 and His-RSK2-328-740. Format: biochemical. On the procedure:
(§1) A truncated RSK2 protein containing the amino acid at position 328 to the amino acid at position 740 (His-RSK-328-740) was purified using Ni-NTA agarose beads (Qiagen Korea Ltd., Seoul, Korea) (Left panel on FIG. 13A) and an in vitro-kinase analysis was performed using active ERK and His-RSK2-328-740 proteins. Specifically, in the in vitro-kinase analysis, 20 μL of the purified sample was treated with 20 ng of active ERK1 or ERK2, 100 ng of RSK2, and 100 μM of cold-ATP, and 3.75 μM, 7.5 μM, 15 μM, 30 μM, and 60 μM of magnolin, respectively. Then, the kinase reaction was performed for 30 minutes at 30° C. The reaction was stopped by adding 6×SDS-sample buffer followed by boiling. Upon termination of the reaction, the resultant was visualized by Western blot.
(§2) As the result of the computational docking, it was observed that magnolin forms hydrogen bonds with Lys168 of ERK1 (Left panel on FIG. 13B) and Met108 and Lys54 of ERK2 (Right panel on FIG. 13B), respectively. Further, it was confirmed that magnolin in the active pocket of ERK1 or ERK2 was completely different in molecular structure and binding angle. The docking scores of magnolin at the active pockets of ERK1 and ERK2 were −0.7 and −6.68, respectively. Further, to measure the IC50 value on the activity of ERK1 or ERK2, the in vitro-kinase analysis was performed.

In series [6] the test system is A549 cells having Ras^G12V. The series can be described thus: Anchorage-independent colony growth in soft agar. Type of series: cell-based, human. Conditions: 15, 30, 60 μM, 10 days. On the procedure: Further, H226 cells (8×10^3 cells) having Ras-wt and A549 cells (8×10^3 cells) having Ras^G12V were cultured in 1 mL of 0.3% DMEM agar containing 10% FBS and 15 μM, 30 μM, and 60 μM of magnolin, respectively, maintained at 37° C., and cultured in a 5% CO2 bioreactor for 10 days. As the result of counting the number and size of the cell colonies using an ECLIPSE Ti inverted microscope and the NIS-Elements AR (V. 4.0) computer software program, it was observed that an anchorage-independent colony growth of A549 cells was inhibited by magnolin.

Series [7] concerns the target T1, ERK2. Put plainly: Magnolin competition analysis using ATP-agarose beads. Conditions: increasing magnolin. Format: binding. On the procedure: Then, to confirm whether magnolin was competitive with ATP or not, a magnolin competition analysis was performed using APT-agarose beads. As the result of the experiment, it was confirmed that an increase in magnolin decreased ERK2 that bind to ATP-agarose beads (FIG. 13E).

For series [8], the system named is ATF1 and AP-1 transactivation activities. Put plainly: ATF1 and AP-1 phosphorylation, nuclear localization and transactivation (Western blot, luciferase reporter). Type of series: cell-based, mouse. The procedure:
1×10^6 of the cultured JB6 Cl41 cells were cultured in a cell culture dish with a diameter of 100 mm for overnight. The cells were starved and left for 24 hours, and then pretreated with magnolin at concentrations of 15 μM, 30 μM, and 60 μM of for 30 minutes, and then co-treated with […] of EGF and magnolin for 30 minutes. The proteins were extracted from the cells and visualized by Western blot.
On the other hand, the cells were co-transfected with pGAL4-ATF1-expressing plasmids and p5xGal4-luciferase reporter plasmids, and then cultured for 12 hours. The cells were pretreated with magnolin for 30 minutes, and co-treated with EGF and magnolin for 6 hours. Then, the cell culture was stopped and the activity of firefly luciferase was measured using the VIXTOR X3(PerkinElmer).
A general note: Immunoblotting shows a protein as a band on a membrane.

Series [9] relates to JB6 Cl41 cells. The series can be described thus: Anchorage-independent cell transformation assay, EGF-induced. Conditions: Mus musculus, JB6 Cl41, 336 h, 10 ng/mL EGF, 14 days. Format: cell-based. On the procedure: JB6 Cl41 cells (8×10^3 cells) present in 1 mL of 0.3% Basal Medium Eagle (BME) agar containing 10% FBS and magnolin in concentrations of 15 μM, 30 μM, and 60 μM, respectively, were exposed to 10 ng/mL of EGF, maintained at 37° C., and cultured in a 5% CO2 bioreactor for 14 days. Then, the number and size of the colonies were counted using an ECLIPSE Ti inverted microscope and the NIS-Elements AR (V. 4.0) computer software program (NIKON Instruments Korea, Seoul, Korea).

The test system of series [10] is JB6 Cl41 cells. The series can be described thus: EGF-induced cell cycle progression. Conditions: 60 μM or higher, 1 ng/mL EGF, 12 hours. Format: cell-based, mouse. On the procedure: Then, the cells were pretreated with magnolin to final concentrations of 15 μM, 30 μM, and 60 μM, respectively, for 30 minutes. Then, under the presence of magnolin, the cells were stimulated with 1 ng/mL of EGF for 12 hours.

Series [11] relates to JB6 Cl41 cells. Put plainly: Cell cycle distribution by PI flow cytometry, normal culture conditions. Format: cell-based, mouse. Conditions: for distribution in G1/G0 phase: 12 hours (control about 42%). On the procedure:
To observe the cell cycle of the cells under normal cell culture conditions, JB6 Cl41 cells were cultured in a complete cell culture medium for 12 hours and treated with magnolin at final concentrations of 30 μM and 60 μM, respectively. After 12 hours, the cells were treated with trypsin, fixed, and treated with 20 μg/mL of PI at 4° C. for 15 minutes. Then, the cell cycle distribution was analyzed using the flow cytometry (BD FACS Calibur™ Flow cytometery, Franklin Lakes, N.J., USA).
(In general: Flow cytometry measures light scatter and fluorescence of single cells or particles in a stream.)

For series [12], the system named is A549 human lung cancer cells harboring Ras^G12V. Put plainly: Cell proliferation of lung cancer cells. Format: cell-based. Conditions: 15, 30, 60 μM, 96 hours. The procedure:
H226 human lung cancer cells (2×10^3 cells) harboring Ras-wt and A549 human lung cancer cells (2×10^3 cells) harboring Ras^G12V, mutant activating factor, were aliquoted into 96-well plates, respectively, and treated with magnolin at concentrations of 15 μM, 30 μM, and 60 μM. The cells were cultured for 96 hours at 24 hour intervals and the cell proliferation was measured.

The next series has as its target ERK1 (Homo sapiens, UniProt P27361). Put plainly: In vitro kinase analysis with active ERK1 and His-RSK2-328-740. Format: biochemical. The procedure:
as §1, §2

Setting [13] is: co-treated with EGF and magnolin.

“Also recorded” adds a separate entry of the source.

Chain of ERK1 (P27361 whole entry, species assumed): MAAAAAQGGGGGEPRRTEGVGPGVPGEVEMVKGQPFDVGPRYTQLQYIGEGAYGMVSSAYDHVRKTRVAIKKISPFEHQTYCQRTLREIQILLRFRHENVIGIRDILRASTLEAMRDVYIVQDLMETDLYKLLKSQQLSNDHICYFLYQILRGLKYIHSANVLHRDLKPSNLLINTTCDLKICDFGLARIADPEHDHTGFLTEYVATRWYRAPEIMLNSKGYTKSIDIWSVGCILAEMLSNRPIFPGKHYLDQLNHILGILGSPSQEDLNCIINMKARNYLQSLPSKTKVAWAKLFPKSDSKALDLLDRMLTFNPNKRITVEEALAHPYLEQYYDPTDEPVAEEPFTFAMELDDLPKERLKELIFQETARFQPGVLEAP
T1 sequence (P28482 whole entry, the tested form may be a part): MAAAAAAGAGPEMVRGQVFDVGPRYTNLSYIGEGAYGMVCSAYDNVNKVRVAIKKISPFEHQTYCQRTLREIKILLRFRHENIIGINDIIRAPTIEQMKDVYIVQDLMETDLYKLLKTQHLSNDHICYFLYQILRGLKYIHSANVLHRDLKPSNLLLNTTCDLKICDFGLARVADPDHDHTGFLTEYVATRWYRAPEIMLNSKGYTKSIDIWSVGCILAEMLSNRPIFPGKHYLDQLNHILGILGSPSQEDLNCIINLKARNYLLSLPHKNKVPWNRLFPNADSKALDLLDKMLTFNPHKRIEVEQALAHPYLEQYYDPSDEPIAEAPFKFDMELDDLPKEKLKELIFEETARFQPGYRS

`COc1cccc(-c2cc(=O)c3ccccc3o2)c1N` [PD98059, reference compound]: the “phosphorylation at Thr359/Ser363 of RSKs” value in [1] (EGF-stimulated JB6 Cl41 cells) is given as “inhibited”. Further, the “ERK1/2 phosphorylation at Thr202/Tyr204” value in series [1] is recorded as “interrupts”.
Usually IC50 stands for the concentration that inhibits the measured activity by half. A lower IC50 goes with higher potency. Take `COc1ccc([C@H]2OC[C@H]3[C@@H]2CO[C@@H]3c2cc(OC)c(OC)c(OC)c2)cc1OC` [magnolin]: in series [2], the anchorage-independent growth result was “inhibited” and the “inhibition of cell proliferation compared with NIH3T3 cells expressing mock” value is “more sensitive”. For the same compound, in the series with JB6 Cl41 cells [3], the cytotoxicity result is listed as “no cytotoxicity was observed”. Further, in series [4] (30 μM), the inhibition at 30 µM is ~40%. Also, the inhibition at 60 µM in [4] (60 μM) was ~70%. Also, the IC50 at ERK2 [5] turned out to be 16.5 nM. Further, the “anchorage-independent colony growth of A549 cells” value in [6] was “inhibited”. At ERK2 [7], the “ERK2 binding to ATP-agarose beads” value is recorded as “decreased”. Further, the “EGF-induced ATF1 phosphorylation at Ser63” value in series [8] (JB6 Cl41 cells, Western blot) is “inhibited”. For the same compound, in series [8] (setting [13]), the AP-1 transactivation activity entry was “inhibited”; the “EGF-induced c-Jun phosphorylation at Ser63 and Ser73” value was “inhibited”; the “nuclear phospho-c-Jun increased by EGF stimulation” value is “decreased”. Moreover, the “nuclear phospho-ATF1 protein level induced by EGF” value in series [8] (co-treated with EGF and magnolin, Western blot and immunocytofluorescence) is “decreased”. The “ATF1 transactivation activity increased by EGF stimulation” value in series [8] (co-treated with EGF and magnolin, luciferase reporter) was “inhibited”. In [1] (EGF-stimulated JB6 Cl41 cells), the “phosphorylation at Thr359/Ser363 of RSKs” value is given as “interrupting phosphorylation; also recorded: inhibited”; the “phosphorylations of MEK, Akt, p38 kinase, and JNKs” value is listed as “not to be involved”. In addition, the “ERK1/2 phosphorylation at Thr202/Tyr204” value in series [1] is “does not interrupt the phosphorylation”. The inhibition at 30 µM in the series with JB6 Cl41 cells [9] (30 μM) is ~40%. In addition, the inhibition at 60 µM with JB6 Cl41 cells [9] (60 μM) is ~75%. For the same compound, the “effect of EGF on cell cycle” value with JB6 Cl41 cells [10] is “almost completely inhibited”. The “distribution in G2/M cell cycle phase compared to control” value with JB6 Cl41 cells [11] (30 μM and 60 μM, 12 hours) is listed as “only a very small increase”. Besides, in the series on JB6 Cl41 cells [11] (30 μM), the “distribution in G1/G0 phase” value is recorded as “about 55%”. In addition, in the series on JB6 Cl41 cells [11] (60 μM), the “distribution in G1/G0 phase” value was “about 60%”. Moreover, the “inhibition of cell proliferation in A549 cells compared with H226 cells” value in series [12] is reported as “more significantly”. Moreover, the “inhibition of ERK1-mediated RSK2 phosphorylation at Thr359/Ser363 and Thr577” value on ERK1 (in vitro kinase reaction, 100 μM ATP, magnolin 3.75 to 60 μM) is given as “about 90%”. Also, the IC50 on ERK1 (in vitro-kinase analysis) is ~87 nM.
